Source: PubChem BioAssay AID2060611 (Molecular Pharmacology Branch, DTP, NCI, 2025)

Tested on: 628569-122-R-J1-PDC complex spheroid viability
Assay: Anticancer human tumor 628569-122-R-J1-PDC patient-derived head and neck squamous carcinoma cell line growth inhibition [CLK]
Settings: for IC50: curve of first compound; for viability, T/C: stronger effect = lower value
Summary of the method: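 Patient-derived tumor cells grown as complex spheroids with HUVEC endothelial cells and mesenchymal stem cells, treated with drug combinations. Concentrations descend in half-log steps from near clinical Cmax, or from 10 microM if Cmax unknown.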

[1] = second compound 0.0316 µM, first compound 0.0316 µM
[2] = second compound 0.0316 µM, first compound 0.1 µM
[3] = second compound 0.1 µM, first compound 0.0316 µM
[4] = second compound 0.1 µM, first compound 0.1 µM
[5] = second compound 0.316 µM, first compound 0.0316 µM
[6] = second compound 0.316 µM, first compound 0.1 µM
[7] = second compound 1 µM, first compound 0.0316 µM
[8] = second compound 1 µM, first compound 0.1 µM
[9] = second compound 3.16 µM, first compound 0.0316 µM
[10] = second compound 3.16 µM, first compound 0.1 µM
[11] = second compound 10 µM, first compound 0.0316 µM
[12] = second compound 10 µM, first compound 0.1 µM
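Further: spheroids exposed to agents for seven days before readout.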
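Wherever viability, T/C is given: 100% = DMSO vehicle control viability.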

For `CC(C)CC(NC(=O)C(Cc1ccccc1)NC(=O)c1cnccn1)B(O)O` (stereo unspecified) + CNC(=O)c1ccc(Nc2nc(OC3CCCC3)c3c(-c4ccc5nc(C)oc5c4)c[nH]c3n2)c(OC)c1, the IC50 (second compound 0.0316 µM) was 4.63 nM, the IC50 (second compound 0.1 µM) was 2.65 nM and the IC50 (second compound 0.316 µM) was < 0.949 nM. For the same compound, the IC50 (second compound 1 µM) was < 0.949 nM, the IC50 (second compound 3.16 µM) was < 0.949 nM and the IC50 (second compound 10 µM) was < 0.949 nM. For the same compound, the viability, T/C (second compound 0.0316 µM, first compound 0.000949 µM) was 106%, the viability, T/C (second compound 0.0316 µM, first compound 0.003 µM) was 73.5% and the viability, T/C (second compound 0.0316 µM, first compound 0.00949 µM) was 11.5%. It also gave a viability, T/C (second compound 0.0316 µM, first compound 0.03 µM) of 2.71%, a viability, T/C (second compound 0.0316 µM, first compound 0.0949 µM) of 11.1% and a viability, T/C (second compound 0.0316 µM, first compound 0.3 µM) of 7.23%. The viability, T/C (second compound 0.1 µM, first compound 0.000949 µM) was 67.5%, the viability, T/C (second compound 0.1 µM, first compound 0.003 µM) was 47.9% and the viability, T/C (second compound 0.1 µM, first compound 0.00949 µM) was 9.96%. The viability, T/C (second compound 0.1 µM, first compound 0.03 µM) was 3.01%, the viability, T/C (second compound 0.1 µM, first compound 0.0949 µM) was 8.44% and the viability, T/C (second compound 0.1 µM, first compound 0.3 µM) was 6.5%. The viability, T/C (second compound 0.316 µM, first compound 0.000949 µM) was 48.9%, the viability, T/C (second compound 0.316 µM, first compound 0.003 µM) was 41.4% and the viability, T/C (second compound 0.316 µM, first compound 0.00949 µM) was 9.14%. It also gave a viability, T/C (second compound 0.316 µM, first compound 0.03 µM) of 2.35%, a viability, T/C (second compound 0.316 µM, first compound 0.0949 µM) of 4.07% and a viability, T/C (second compound 0.316 µM, first compound 0.3 µM) of 3.8%. It also gave a viability, T/C (second compound 1 µM, first compound 0.000949 µM) of 46.9%, a viability, T/C (second compound 1 µM, first compound 0.003 µM) of 29.3% and a viability, T/C (second compound 1 µM, first compound 0.00949 µM) of 4.76%. It also gave a viability, T/C (second compound 1 µM, first compound 0.03 µM) of 10.9%, a viability, T/C (second compound 1 µM, first compound 0.0949 µM) of 17.6% and a viability, T/C (second compound 1 µM, first compound 0.3 µM) of 13.2%. It also gave a viability, T/C (second compound 3.16 µM, first compound 0.000949 µM) of 46.5%, a viability, T/C (second compound 3.16 µM, first compound 0.003 µM) of 18% and a viability, T/C (second compound 3.16 µM, first compound 0.00949 µM) of 11.5%. It also gave a viability, T/C (second compound 3.16 µM, first compound 0.03 µM) of 21%, a viability, T/C (second compound 3.16 µM, first compound 0.0949 µM) of 9.26% and a viability, T/C (second compound 3.16 µM, first compound 0.3 µM) of 7.04%. The viability, T/C (second compound 10 µM, first compound 0.000949 µM) was 44.6%, the viability, T/C (second compound 10 µM, first compound 0.003 µM) was 19.1% and the viability, T/C (second compound 10 µM, first compound 0.00949 µM) was 9.08%. The viability, T/C (second compound 10 µM, first compound 0.03 µM) was 7.35%, the viability, T/C (second compound 10 µM, first compound 0.0949 µM) was 11.3% and the viability, T/C (second compound 10 µM, first compound 0.3 µM) was 12.8%.
`Cn1ncnc1[C@H]1c2n[nH]c(=O)c3cc(F)cc(c23)N[C@@H]1c1ccc(F)cc1` + CNC(=O)c1ccc(Nc2nc(OC3CCCC3)c3c(-c4ccc5nc(C)oc5c4)c[nH]c3n2)c(OC)c1 was tested, and the IC50 (second compound 0.0316 µM) was > 100 nM, the IC50 (second compound 0.1 µM) was 37.6 nM and the IC50 (second compound 0.316 µM) was 1.53 nM. The IC50 (second compound 1 µM) was < 0.316 nM, the IC50 (second compound 3.16 µM) was < 0.316 nM and the IC50 (second compound 10 µM) was < 0.316 nM. The viability, T/C (second compound 0.0316 µM, first compound 0.000316 µM) was 86.7%, the viability, T/C (second compound 0.0316 µM, first compound 0.001 µM) was 90.1% and the viability, T/C (second compound 0.0316 µM, first compound 0.00316 µM) was 82.7%. The viability, T/C (second compound 0.0316 µM, first compound 0.01 µM) was 71.3%, the viability, T/C [1] was 78% and the viability, T/C [2] was 64.9%. The viability, T/C (second compound 0.1 µM, first compound 0.000316 µM) was 61.4%, the viability, T/C (second compound 0.1 µM, first compound 0.001 µM) was 53.4% and the viability, T/C (second compound 0.1 µM, first compound 0.00316 µM) was 60.1%. For the same compound, the viability, T/C (second compound 0.1 µM, first compound 0.01 µM) was 53.7%, the viability, T/C [3] was 51% and the viability, T/C [4] was 45.9%. It also gave a viability, T/C (second compound 0.316 µM, first compound 0.000316 µM) of 47.7%, a viability, T/C (second compound 0.316 µM, first compound 0.001 µM) of 48.4% and a viability, T/C (second compound 0.316 µM, first compound 0.00316 µM) of 51.9%. It also gave a viability, T/C (second compound 0.316 µM, first compound 0.01 µM) of 54.4%, a viability, T/C [5] of 54.5% and a viability, T/C [6] of 39.6%. For the same compound, the viability, T/C (second compound 1 µM, first compound 0.000316 µM) was 43.9%, the viability, T/C (second compound 1 µM, first compound 0.001 µM) was 39.5% and the viability, T/C (second compound 1 µM, first compound 0.00316 µM) was 48.1%. It also gave a viability, T/C (second compound 1 µM, first compound 0.01 µM) of 39%, a viability, T/C [7] of 40.1% and a viability, T/C [8] of 40.2%. It also gave a viability, T/C (second compound 3.16 µM, first compound 0.000316 µM) of 37.5%, a viability, T/C (second compound 3.16 µM, first compound 0.001 µM) of 45.5% and a viability, T/C (second compound 3.16 µM, first compound 0.00316 µM) of 48.5%. For the same compound, the viability, T/C (second compound 3.16 µM, first compound 0.01 µM) was 41.5%, the viability, T/C [9] was 37.7% and the viability, T/C [10] was 34.3%. It also gave a viability, T/C (second compound 10 µM, first compound 0.000316 µM) of 47.4%, a viability, T/C (second compound 10 µM, first compound 0.001 µM) of 39.6% and a viability, T/C (second compound 10 µM, first compound 0.00316 µM) of 41.4%. It also gave a viability, T/C (second compound 10 µM, first compound 0.01 µM) of 36.7%, a viability, T/C [11] of 38% and a viability, T/C [12] of 31.3%.
In the case of `O=C(c1cc(Cc2n[nH]c(=O)c3ccccc23)ccc1F)N1CCN(C(=O)C2CC2)CC1` + CNC(=O)c1ccc(Nc2nc(OC3CCCC3)c3c(-c4ccc5nc(C)oc5c4)c[nH]c3n2)c(OC)c1, the IC50 (second compound 0.0316 µM) is reported as > 10000 nM, the IC50 (second compound 0.1 µM) is reported as > 10000 nM and the IC50 (second compound 0.316 µM) is reported as 1980 nM. The IC50 (second compound 1 µM) was < 31.6 nM, the IC50 (second compound 3.16 µM) was < 31.6 nM and the IC50 (second compound 10 µM) was 31.6 nM. For the same compound, the viability, T/C [1] was 99.7%, the viability, T/C [2] was 105% and the viability, T/C (second compound 0.0316 µM, first compound 0.316 µM) was 102%. It also gave a viability, T/C (second compound 0.0316 µM, first compound 1 µM) of 81.9%, a viability, T/C (second compound 0.0316 µM, first compound 3.16 µM) of 103% and a viability, T/C (second compound 0.0316 µM, first compound 10 µM) of 61.7%. The viability, T/C [3] was 63.2%, the viability, T/C [4] was 60% and the viability, T/C (second compound 0.1 µM, first compound 0.316 µM) was 60.7%. For the same compound, the viability, T/C (second compound 0.1 µM, first compound 1 µM) was 59.6%, the viability, T/C (second compound 0.1 µM, first compound 3.16 µM) was 62.8% and the viability, T/C (second compound 0.1 µM, first compound 10 µM) was 41.7%. For the same compound, the viability, T/C [5] was 50.8%, the viability, T/C [6] was 55.5% and the viability, T/C (second compound 0.316 µM, first compound 0.316 µM) was 56.6%. For the same compound, the viability, T/C (second compound 0.316 µM, first compound 1 µM) was 51.9%, the viability, T/C (second compound 0.316 µM, first compound 3.16 µM) was 47.5% and the viability, T/C (second compound 0.316 µM, first compound 10 µM) was 39.7%. The viability, T/C [7] was 39.8%, the viability, T/C [8] was 49.3% and the viability, T/C (second compound 1 µM, first compound 0.316 µM) was 47.5%. The viability, T/C (second compound 1 µM, first compound 1 µM) was 47%, the viability, T/C (second compound 1 µM, first compound 3.16 µM) was 45.2% and the viability, T/C (second compound 1 µM, first compound 10 µM) was 33.2%. The viability, T/C [9] was 43.7%, the viability, T/C [10] was 44.4% and the viability, T/C (second compound 3.16 µM, first compound 0.316 µM) was 41.8%. The viability, T/C (second compound 3.16 µM, first compound 1 µM) was 41.2%, the viability, T/C (second compound 3.16 µM, first compound 3.16 µM) was 42.5% and the viability, T/C (second compound 3.16 µM, first compound 10 µM) was 31.5%. The viability, T/C [11] was 46.6%, the viability, T/C [12] was 41.8% and the viability, T/C (second compound 10 µM, first compound 0.316 µM) was 49.3%. For the same compound, the viability, T/C (second compound 10 µM, first compound 1 µM) was 39.1%, the viability, T/C (second compound 10 µM, first compound 3.16 µM) was 56.1% and the viability, T/C (second compound 10 µM, first compound 10 µM) was 26.5%.
